Results from article PMC11320734 (ACS Pharmacology & Translational Science, 2024).
≈ marks a conversion by molar mass, not a printed value. Where two headings read alike, the source gives them in different places.

Columns and labels:
hCB1R = hCB1R (Homo sapiens, UniProt P21554); experiment: cell-based; settings: Table 1; mean ± SD; read-out: EC50 hCB1R (cAMP assay)
ABHD12 = ABHD12 (Homo sapiens, UniProt Q8N2K0); experiment: Endocannabinoid target profiling: ABHD12; format: biochemical
[1] = Lyophilization solubility assay (LYSA); format: physicochemical; settings: aqueous buffer, thermodynamic from solid; kinetic, phosphate buffer pH 6.5
Method: For the determination of the octanol/water distribution coefficient (logD), the carrier-mediated distribution system (CAMDIS)-assay was used as described elsewhere.[38] Kinetic and thermodynamic solubilities were assessed using the lyophilization solubility assay (LYSA) and thermodynamic solubility assay (THESA), respectively. For the LYSA, the solubility of RNB- 61 in phosphate buffer at pH 6.5 from an evaporated 10 mM DMSO compound stock solution was measured. Two aliquots of the test compounds were dried and dissolved in phosphate buffer at pH 6.5. The solutions were then filtered and diluted (3 different dilution levels for each compound) before high throughput mass spectrometry (MS) analysis was performed in an Agilent RapidFire system. Each test compound was quantified using a 6-point calibration curve prepared with the same DMSO starting solution. For THESA, RNB-61 (8.6 mg per mL solvent/vehicle) was stirred in HPLC vials (9 × 12 × 32 mm, Waters) at 350 rpm for 15 h. The presence of solid particles was determined by microscopic analysis of 10 μL samples. If the active pharmacological ingredient (API) was completely dissolved, more solid API was added before stirring for another 15 h. This step was repeated for up to 96 h or until residual solid particles could be detected. […] The filtrates were diluted in ethanol and analyzed by ultra-performance liquid chromatography (UPLC). […]

[2] = Brain penetration study with/without P-gp inhibitor tariquidar; format: in vivo, male C57/BL6 mice
Method: (§1) To characterize the pharmacokinetic behavior of RNB-61, studies in rodents were conducted at the in vivo facility of F. Hoffmann-La Roche Ltd. (Basel, Switzerland). The plasma-concentration time profile was studied in rodents after single-dose RNB-61 administration by oral gavage (p.o. microsuspension excipients 7.5% gelatin/0.62% NaCl) and intravenous bolus injection (i.v. solution, excipients NMP:NaCl (30:70)). Three groups of male Wistar rats (n = 2 per group) were administered RNB-61 either at 1 mg kg^–1 i.v., 3 mg kg^–1 p.o., or 26 mg kg^–1 p.o. Plasma samples were drawn at 0.083, 0.25, 0.5, 1, 2, 4, 8, and 24 postdose in the i.v. group and at 0.25, 0.5, 0.75, 1.5, 3, 5, 8, and 24 h postdose in the p.o. groups. The samples were analyzed for RNB-61 concentration by LC/MS-MS. For the LC/MS-MS analysis, and the samples were prepared by adding 100 uL to 400 uL ACN with ISTD (100 ng/mL Bosantan in ACN/MeOH 1/1), stirring, and centrifuging (4000 rpm, 65’). 100 uL of the supernatant were pipetted and diluted with 400 μL H2O at pH 3. The analytes were separated on a Restek C18 column (5 μm, 1.0 × 3 mm). The mobile phase consisted of water containing 0.1% HCOOH as solvent A and ACN containing 0.1% HCOOH as solvent B. The gradient curve starting with 5% B was changed to 90% B between 0.4 and 0.6 min and further increased to 95% B between 0.6 and 1.2 min. This was maintained until 1.4 min and then reduced and kept at 5% B between 1.45 and 2.0 min. The mass spectrometer was operated in the positive mode. All LC-MS/MS was done using the Agilent RapidFire Analyzer software (version 4.3). The pharmacokinetic parameters were estimated by noncompartmental analysis in the Certara WinNonlin software (version 5.3). A similar study design was run in mice with three groups receiving 2 mg kg^–1 i.v., 4 mg kg^–1 p.o., or 26 mg kg^–1 p.o., and plasma sampling occurring in a composite profile (n = 2 for each time point) up to 7 or 24 h postdose. Male C57/BL6 mice (n = 5 per group) were used to study the influence of P-gp efflux on brain penetration. Two groups of mice were administered RNB-61 by i.v. bolus injection at 1 mg kg^–1 (2 groups). In order to block P-gp activity, an i.v. bolus of 5 mg kg^–1 tariquidar[46] was injected into one group 30 min prior to RNB-61. Plasma was collected at 0.083, 0.25, 0.5, 2, 4, and 7 h postdose in a composite profile. Brain, CSF, and vitreous body were collected at terminal time points 0.5, 2, 4, and 7 h postdose.

P-gp = experiment: as above; format: in vivo, male C57/BL6 mice; settings: male, C57/BL6, mouse, with tariquidar 5 mg kg^–1 i.v. bolus, 30 min prior to RNB-61
Method: as §1

[3] = RNB-61 1 mg kg^–1 i.v. + tariquidar 5 mg kg^–1 i.v.
[4] = RNB-61 1 mg kg^–1 i.v., no tariquidar

Sequence of ABHD12 (Q8N2K0 whole entry, species assumed): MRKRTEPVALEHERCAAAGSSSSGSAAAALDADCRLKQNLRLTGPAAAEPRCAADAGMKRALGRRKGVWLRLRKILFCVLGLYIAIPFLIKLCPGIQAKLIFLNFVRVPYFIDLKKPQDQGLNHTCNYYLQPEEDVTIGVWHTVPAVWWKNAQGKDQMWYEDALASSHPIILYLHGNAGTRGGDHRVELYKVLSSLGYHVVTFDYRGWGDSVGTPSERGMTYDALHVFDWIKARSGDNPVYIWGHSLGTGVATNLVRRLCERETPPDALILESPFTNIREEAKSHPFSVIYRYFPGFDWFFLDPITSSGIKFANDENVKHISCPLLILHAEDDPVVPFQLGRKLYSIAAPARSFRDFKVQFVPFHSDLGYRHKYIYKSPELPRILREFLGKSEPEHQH
Sequence of hCB1R (P21554 whole entry): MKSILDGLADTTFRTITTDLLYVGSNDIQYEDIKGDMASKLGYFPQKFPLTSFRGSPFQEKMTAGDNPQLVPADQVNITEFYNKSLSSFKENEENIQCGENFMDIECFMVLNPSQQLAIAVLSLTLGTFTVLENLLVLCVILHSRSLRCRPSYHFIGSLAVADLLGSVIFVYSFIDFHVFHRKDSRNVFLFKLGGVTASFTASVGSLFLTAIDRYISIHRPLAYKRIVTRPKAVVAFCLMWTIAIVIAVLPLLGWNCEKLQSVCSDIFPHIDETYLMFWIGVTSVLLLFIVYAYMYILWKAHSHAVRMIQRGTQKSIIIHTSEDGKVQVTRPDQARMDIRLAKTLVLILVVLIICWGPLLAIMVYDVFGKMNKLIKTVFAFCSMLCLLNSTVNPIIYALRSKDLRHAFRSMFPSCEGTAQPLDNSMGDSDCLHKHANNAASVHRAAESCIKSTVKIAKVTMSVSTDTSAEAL

With `Cn1c(C(C)(C)C)cc(=NC(=O)c2cc(C(F)(F)F)ccc2OCC(C)(C)O)n1CC1CCC1` [RNB-61] the EC50 (hCB1R) was over 10 µM, the IC50 (ABHD12; Table S1, read-out: ABHD12 (Ki, IC50)) was over 10 µM and the “inhibition of EC hydrolysis by ABHD12” value (ABHD12; screening concentration 10 μM) was “did not inhibit”. For the same compound, the solubility [1] was 194 µg/mL (≈ 403 µM), the “AUClast lower in the brain compared to plasma” value ([2]; 1 mg kg^–1 i.v., no tariquidar) was over 10 fold and the “peak brain concentration lower compared to plasma level” value ([2]; 1 mg kg^–1 i.v., no tariquidar) was over 20 fold. The “brain AUCinf” value [2, 3] was 4386 ng·h/mL, the “brain AUClast” value [2, 3] was 1877 ng·h/mL and the “brain Cmax” value [2, 3] was 342 ng/mL. The “brain AUCinf” value [2, 4] was 375 ng·h/mL, the “brain AUClast” value [2, 4] was 215 ng·h/mL and the “brain Cmax” value [2, 4] was 41.3 ng/mL. The half-life ([2]; male, C57/BL6, mouse, brain, iv, RNB-61 1 mg kg^–1 i.v., no tariquidar, read-out: brain T1/2 (converted)) was 5.98 h, the Tmax ([2]; male, C57/BL6, mouse, brain, iv, RNB-61 1 mg kg^–1 i.v., no tariquidar, read-out: brain Tmax) was 0.58 h and the Kp ([2]; male, C57/BL6, mouse, iv, ratio of AUClast in brain and plasma, 1 mg kg^–1 i.v., no tariquidar, read-out: brain-plasma partition coefficient Kp) was 0.088. It also gave a Cmax ([2]; male, C57/BL6, mouse, plasma, iv, RNB-61 1 mg kg^–1 i.v., no tariquidar) of 972 ng/mL, an AUC(0-inf) ([2]; male, C57/BL6, mouse, plasma, iv, RNB-61 1 mg kg^–1 i.v., no tariquidar, read-out: plasma AUCinf) of 3320 ng·h/mL and an AUC(0-t) ([2]; male, C57/BL6, mouse, plasma, iv, RNB-61 1 mg kg^–1 i.v., no tariquidar, read-out: plasma AUClast) of 2430 ng·h/mL. It also gave a clearance ([2]; male, C57/BL6, mouse, plasma, iv, RNB-61 1 mg kg^–1 i.v., no tariquidar, read-out: plasma CL (converted)) of 5.02 mL/min/kg, a half-life ([2]; male, C57/BL6, mouse, plasma, iv, RNB-61 1 mg kg^–1 i.v., no tariquidar, read-out: plasma T1/2 (converted)) of 4 h and a Tmax ([2]; male, C57/BL6, mouse, plasma, iv, RNB-61 1 mg kg^–1 i.v., no tariquidar, read-out: plasma Tmax) of 0.25 h. The “brain Cmax and AUClast higher with tariquidar than RNB-61 alone” value ([2]; tariquidar 5 mg kg^–1) was about 10 fold, the half-life (P-gp; brain, iv, RNB-61 1 mg kg^–1 i.v. + tariquidar 5 mg kg^–1 i.v., read-out: brain T1/2 (converted)) was 8.42 h and the Tmax (P-gp; brain, iv, RNB-61 1 mg kg^–1 i.v. + tariquidar 5 mg kg^–1 i.v., read-out: brain Tmax) was 0.53 h. For the same compound, the Kp (P-gp; intravenous, ratio of AUClast in brain and plasma, + tariquidar 5 mg kg^–1, read-out: brain-plasma partition coefficient Kp) was 0.747, the Cmax (P-gp; plasma, iv, RNB-61 1 mg kg^–1 i.v. + tariquidar 5 mg kg^–1 i.v.) was 737 ng/mL and the AUC(0-inf) (P-gp; plasma, iv, RNB-61 1 mg kg^–1 i.v. + tariquidar 5 mg kg^–1 i.v., read-out: plasma AUCinf) was 3560 ng·h/mL. For the same compound, the AUC(0-t) (P-gp; plasma, iv, RNB-61 1 mg kg^–1 i.v. + tariquidar 5 mg kg^–1 i.v., read-out: plasma AUClast) was 2510 ng·h/mL, the clearance (P-gp; plasma, iv, RNB-61 1 mg kg^–1 i.v. + tariquidar 5 mg kg^–1 i.v., read-out: plasma CL (converted)) was 4.68 mL/min/kg and the half-life (P-gp; plasma, iv, RNB-61 1 mg kg^–1 i.v. + tariquidar 5 mg kg^–1 i.v., read-out: plasma T1/2 (converted)) was 3.68 h. It also gave a Tmax (P-gp; plasma, iv, RNB-61 1 mg kg^–1 i.v. + tariquidar 5 mg kg^–1 i.v., read-out: plasma Tmax) of 0.083 h.
